These results are taken from PubChem BioAssay (NCI).

Assay in all cases: inhibition of tumour cell growth, NCI panel, 48 h
The subject of assay [1] is U251 CNS.
For assay [2], the system named is SF-539 CNS.
Assay [3] relates to HOP-62 NSCLC.
Assay [4] concerns OVCAR-3 ovarian.
Assay [5] concerns UACC-62 melanoma.
In assay [6] the test system is 786-0 renal.
The subject of assay [7] is HCC-2998 colon.
The subject of assay [8] is UACC-257 melanoma.
Assay [9] concerns PC-3 prostate.
In assay [10] the test system is CCRF-CEM leukemia.
Assay [11] relates to NCI-H23 lung.
The subject of assay [12] is EKVX NSCLC.
The test system of assay [13] is KM12 colon.
Assay [14] deals with SK-MEL-2 melanoma.
For assay [15], the system named is COLO 205 colon.

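Results reflect a 48-hour exposure of cells in 96-well plates to compound at five concentrations. The concentration for full growth arrest is given as TGI.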 A value given as a limit tells only on which side of the number the result lay.

As to `COC(=O)C(NC(=O)c1ccccc1)c1ccco1` (stereo not drawn), the TGI in assay [1], in [2], in [3], in assay [4], in assay [5] and in [6] was > 100 µM throughout. Besides, the TGI in [7], in assay [8], in assay [9], in assay [10], in assay [11] and in assay [12] was > 100 µM throughout. In addition, the TGI in assay [13] was > 100 µM.

For `Cc1[nH]n(C2=NCCN2)c(=O)c1Cc1ccccc1`, the TGI in [1], in [2], in [3], in assay [14], in assay [4] and in [5] was > 100 µM in each case. In addition, the TGI in assay [6], in assay [15], in assay [8], in assay [9], in [10] and in assay [11] was > 100 µM each time. Further, the TGI in [12] and in assay [13] was > 100 µM in each case.

Turning to `O=c1c2cc(S(=O)(=O)O)ccc2nc(COc2ccc(Oc3ccc(Cl)cc3Cl)cc2)n1-c1ccc(Cl)cc1Oc1c(Cl)cccc1Cl`, the TGI in assay [1] was 40.5 µM; in assay [2], 33.5 µM; in [3], > 100 µM; in [14], 35.6 µM; in [4] it was 61.1 µM; in assay [5] it was 48.9 µM. Also, the TGI in [6] is 64.6 µM; in assay [15], 32.1 µM; in assay [8] it was 86.6 µM; in assay [9], > 100 µM; in assay [10] it was > 100 µM; in assay [11], 57.1 µM. For the same compound, the TGI in [12] was 40.4 µM; in assay [13], > 100 µM.

As to `CC1ON2CCCC2[C@H]1C(=O)N1C2CC3CCC2(CS1(=O)=O)C3(C)C` (stereo partly drawn), the TGI in assay [1], in assay [2], in assay [3], in [14], in assay [4] and in assay [5] was > 100 µM in each case. The TGI in assay [6], in assay [15], in assay [8], in assay [9], in assay [10] and in assay [11] was > 100 µM in each case. In addition, the TGI in assay [12] and in assay [13] was > 100 µM each time.

Take `COC1(OC)CC(CO)(CNc2nc(N)nc(Cl)c2/C=N\O)C1`: the TGI in [1], in assay [2], in assay [3], in assay [4], in [6] and in assay [15] was > 100 µM each time. Besides, the TGI in [7], in [8], in assay [9], in assay [10], in [11] and in assay [12] was > 100 µM throughout. Further, the TGI in assay [13] was found to be 24.4 µM.

In the case of `CCOC(=O)C1(C(=O)OCC)C[C@H](C)[C@](C)(O)C1`, the TGI in [1], in [2], in assay [3], in [14], in [4] and in [5] was > 100 µM each time. In addition, the TGI in [6], in assay [15], in assay [8], in assay [9], in assay [10] and in [11] was > 100 µM in each case. The TGI in assay [12] and in assay [13] was > 100 µM throughout.

For `O=C(O)Cc1cccc2c1OC(c1ccccc1)C(Cl)(C(=O)c1ccccc1)C2=O` (stereo not drawn), the TGI turned out to be 30.9 µM in assay [1]; 84.3 µM in assay [2]; 43.6 µM in [3]; 31.9 µM in assay [4]; 25.9 µM in [6]; 26.1 µM in [7]. In addition, the TGI was 32 µM in assay [8]; 24.3 µM in [9]; 18.2 µM in [10]; 33.1 µM in assay [11]; 50 µM in [12]; 50.6 µM in [13].

As to `COc1ccccc1N1CCN(CCCN2/C(=C(\O)c3ccccc3)C(=O)c3c(C)cc(C)nc3S2(=O)=O)CC1`, the TGI in [1], in [2], in assay [3], in assay [14], in assay [4] and in assay [5] was > 100 µM throughout. For the same compound, the TGI in assay [6], in assay [15], in [8], in assay [9], in assay [10] and in assay [11] was > 100 µM throughout. For the same compound, the TGI in assay [12] and in [13] was > 100 µM in each case.
